Results from ChEMBL document CHEMBL1201862, “PubChem BioAssay data set” (2004).
“And” between values parts separate entries of the source, which are not always exact repeats. Equal values may be shown once. Where a name gives a salt, the structure may show the parent alone. The source made the active and inactive calls.

Experiments:
[1] = biological target: Potassium channel subfamily K member 3 (Homo sapiens, UniProt O14649); assay: TASK1 (KCNK3) potassium channel inhibitors, SAR follow-up, CHO cells, FluxOR thallium flux (AID 652212); type: functional
Sequence of Potassium channel subfamily K member 3 (O14649 whole entry): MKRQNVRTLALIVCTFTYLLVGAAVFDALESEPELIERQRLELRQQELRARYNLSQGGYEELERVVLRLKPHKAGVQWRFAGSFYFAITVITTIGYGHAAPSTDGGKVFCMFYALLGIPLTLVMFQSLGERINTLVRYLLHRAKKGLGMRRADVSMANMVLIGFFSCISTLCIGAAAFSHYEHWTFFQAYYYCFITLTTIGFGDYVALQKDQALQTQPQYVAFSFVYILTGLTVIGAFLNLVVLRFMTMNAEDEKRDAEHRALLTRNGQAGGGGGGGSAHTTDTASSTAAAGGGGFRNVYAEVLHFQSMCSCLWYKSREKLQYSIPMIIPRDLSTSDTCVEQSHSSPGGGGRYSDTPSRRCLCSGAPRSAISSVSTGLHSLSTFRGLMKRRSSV

[2] = inhibitors of fibronectin matrix deposition, dose response, AH1F cells, Alexa488-FN fluorescence, cherry-picks (AID 1035475); type: functional, cell-based
[3] = A549 cell cytotoxicity, dose response, cytotoxicity control, cherry-picks, 26 µM top dose (AID 1053119); type: functional, cell-based
[4] = A cytotoxicity screen of small molecule inhibitors of the PhoP region in Salmonella typhi identified in the primary screen. [Related pubchem assays: 1850, 1864, 1985 ]; type: functional
[5] = biological target: Acyl-protein thioesterase 1 (Homo sapiens, UniProt O75608); assay: Late stage assay provider results from the probe development effort to identify selective inhibitors of LYPLA1: fluorescence-based biochemical dose-response assay.
Sequence of Acyl-protein thioesterase 1 (O75608 whole entry, the tested form may be a part): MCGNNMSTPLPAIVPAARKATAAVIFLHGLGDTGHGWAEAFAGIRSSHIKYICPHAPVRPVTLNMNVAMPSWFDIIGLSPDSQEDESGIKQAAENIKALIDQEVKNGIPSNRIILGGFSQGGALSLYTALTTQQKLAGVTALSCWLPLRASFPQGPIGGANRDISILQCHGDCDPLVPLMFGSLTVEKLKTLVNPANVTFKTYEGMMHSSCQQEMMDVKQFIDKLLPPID

[6] = off-target signal loss in HeLa-CEM21 co-culture – HeLa F-luc CTL cells, cherry-picked, counter-screen for HIV-1 Env fusion inhibitor project, dose response (AID 652040); type: functional, cell-based;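 further: potency for signal decrease marking cytotoxic or nonspecific inhibition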
[7] = CEM21 lymphoblast cell cytotoxicity, dose response, cytotoxicity control for viral fusion inhibitor project, CellTiter-Glo luminescence, cherry-picked (AID 652042); type: functional, cell-based;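 further: potency for signal decrease meaning cytotoxicity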
[8] = inhibitors of HIV Env-driven cell fusion, dose response, cherry-pick (AID 652057); type: functional, cell-based
[9] = CEM21 cell cytotoxicity, dose response, cytotoxicity control, plate reader, dry powder (AID 687026); type: functional, cell-based
[10] = HIV Env cell-cell fusion inhibitors, dose response, HIV entry, plate reader, dry powder (AID 687023); type: functional, cell-based
[11] = inhibitors of clade B AD8 Env fusion, dose response, cell-based, cherry-pick (AID 652062); type: functional;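 further: luciferase signal from cell-cell fusion driven by HIV-1 clade B AD8 Env; potency is for inhibitors of fusion seen as a drop in luminescence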
[12] = biological target: T1, Oxysterols receptor LXR-beta (Homo sapiens, UniProt P55055); type: functional, cell-based;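 further: agonist activity at LXR measured by a cell-based luminescence readout across a dose range, run as a counterscreen for daf-12 agonists; HEK293 cells with Gal4-LXR fusion and GAL4-driven luciferase reporter; potency for activation of Gal4-LXR reporter so compounds are agonists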
T1 sequence (P55055 whole entry): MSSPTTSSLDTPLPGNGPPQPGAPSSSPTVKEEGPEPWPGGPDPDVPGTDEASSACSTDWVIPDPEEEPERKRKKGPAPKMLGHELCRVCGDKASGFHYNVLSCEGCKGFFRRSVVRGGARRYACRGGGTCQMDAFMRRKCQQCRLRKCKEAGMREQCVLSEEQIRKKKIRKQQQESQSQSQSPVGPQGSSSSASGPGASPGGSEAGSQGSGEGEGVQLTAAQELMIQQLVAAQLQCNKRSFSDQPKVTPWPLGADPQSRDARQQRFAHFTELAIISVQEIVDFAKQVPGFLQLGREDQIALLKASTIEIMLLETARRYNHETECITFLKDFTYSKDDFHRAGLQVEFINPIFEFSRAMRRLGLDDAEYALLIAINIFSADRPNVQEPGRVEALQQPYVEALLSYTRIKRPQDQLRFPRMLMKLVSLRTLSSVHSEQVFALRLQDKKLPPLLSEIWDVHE

[13] = biological target: 1-phosphatidylinositol 4,5-bisphosphate phosphodiesterase gamma-1 (Homo sapiens, UniProt P19174); assay: Counterscreen for inhibitors of phospholipase C isozymes (PLC-B3): Fluorescence-based biochemical high throughput dose response assay to identify inhibitors of phospholipase C isozymes (PLC-gamma1).
Sequence of 1-phosphatidylinositol 4,5-bisphosphate phosphodiesterase gamma-1 (P19174 whole entry): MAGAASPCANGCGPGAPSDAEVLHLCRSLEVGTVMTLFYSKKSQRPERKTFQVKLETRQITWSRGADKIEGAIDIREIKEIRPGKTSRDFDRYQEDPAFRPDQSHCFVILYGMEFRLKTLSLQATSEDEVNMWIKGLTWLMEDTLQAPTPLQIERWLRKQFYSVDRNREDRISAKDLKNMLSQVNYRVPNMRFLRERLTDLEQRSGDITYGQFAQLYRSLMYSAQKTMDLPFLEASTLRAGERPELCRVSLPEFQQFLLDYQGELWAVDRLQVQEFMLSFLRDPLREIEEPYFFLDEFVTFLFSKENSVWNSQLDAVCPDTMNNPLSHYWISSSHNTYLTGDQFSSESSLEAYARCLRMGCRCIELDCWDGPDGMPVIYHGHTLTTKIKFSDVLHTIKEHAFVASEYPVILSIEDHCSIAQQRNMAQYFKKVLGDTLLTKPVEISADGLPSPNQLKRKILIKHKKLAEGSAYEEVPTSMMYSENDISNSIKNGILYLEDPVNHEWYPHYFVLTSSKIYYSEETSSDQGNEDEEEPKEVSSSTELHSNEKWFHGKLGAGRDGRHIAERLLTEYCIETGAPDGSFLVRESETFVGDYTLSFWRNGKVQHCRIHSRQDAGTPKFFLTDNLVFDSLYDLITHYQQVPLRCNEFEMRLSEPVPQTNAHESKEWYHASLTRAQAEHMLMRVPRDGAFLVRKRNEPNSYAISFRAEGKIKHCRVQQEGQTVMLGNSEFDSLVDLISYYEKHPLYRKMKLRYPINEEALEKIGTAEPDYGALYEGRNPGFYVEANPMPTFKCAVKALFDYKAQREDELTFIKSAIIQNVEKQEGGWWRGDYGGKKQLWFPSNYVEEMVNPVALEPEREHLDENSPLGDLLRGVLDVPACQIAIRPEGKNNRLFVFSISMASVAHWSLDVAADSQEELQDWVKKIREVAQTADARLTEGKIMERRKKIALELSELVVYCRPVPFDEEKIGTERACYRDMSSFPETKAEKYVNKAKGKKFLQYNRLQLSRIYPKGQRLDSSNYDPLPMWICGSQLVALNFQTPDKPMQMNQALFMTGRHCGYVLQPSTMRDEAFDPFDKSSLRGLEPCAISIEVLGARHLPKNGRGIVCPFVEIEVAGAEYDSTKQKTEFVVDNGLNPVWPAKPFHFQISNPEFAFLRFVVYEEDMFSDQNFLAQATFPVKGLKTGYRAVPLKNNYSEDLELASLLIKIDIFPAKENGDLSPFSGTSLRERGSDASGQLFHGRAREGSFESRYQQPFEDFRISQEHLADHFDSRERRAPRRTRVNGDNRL

[14] = biological target: 1-phosphatidylinositol 4,5-bisphosphate phosphodiesterase beta-3 (Homo sapiens, UniProt Q01970); assay: Fluorescence-based biochemical high throughput dose response assay to identify inhibitors of phospholipase C isozymes (PLC-B3).
[15] = biological target: Matrix metalloproteinase-14 (Homo sapiens, UniProt P50281); assay: Dose Response confirmation of uHTS hits for a small molecule inhibitors of MT1-MMP activation in a fluorescence assay set 1.; type: functional
[16] = Shn3 3'UTR reporter inhibitors, dose response, cell-based, Clone20 osteoblasts, firefly luciferase, cherry-picked (AID 624132); type: functional;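 further: firefly luciferase luminescence from reporter carrying the Shn3 3'UTR in osteoblasts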
[17] = control 3'UTR Renilla luciferase suppression, dose response, counter-screen for Shn3 inhibitor project, cell-based, Clone20-Shn3RL, cherry-picked (AID 624133); type: functional
[18] = HepG2 cell cytotoxicity, dose response, cytotoxicity control for Shn3 inhibitor project, CellTiter-Glo, cherry-picked (AID 624134); type: functional, cell-based
[19] = reduction of Shn3 3'UTR firefly luciferase signal, dose response, Schnurri-3 inhibitor project, cell-based, Clone20 osteoblasts, cherry-pick, set 2 (AID 720490); type: functional;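 further: actives lower the luminescence signal as inhibitors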
cells = details: A549
[20] = biological target: T2, Disintegrin and metalloproteinase domain-containing protein 17 (Homo sapiens, UniProt P78536); assay: ADAM17 protease inhibitors, dose response, counter-screen for ADAM10 exosite inhibitor project, biochemical, quenched FRET substrate (AID 743253)
T2 sequence (P78536 whole entry, the tested form may be a part): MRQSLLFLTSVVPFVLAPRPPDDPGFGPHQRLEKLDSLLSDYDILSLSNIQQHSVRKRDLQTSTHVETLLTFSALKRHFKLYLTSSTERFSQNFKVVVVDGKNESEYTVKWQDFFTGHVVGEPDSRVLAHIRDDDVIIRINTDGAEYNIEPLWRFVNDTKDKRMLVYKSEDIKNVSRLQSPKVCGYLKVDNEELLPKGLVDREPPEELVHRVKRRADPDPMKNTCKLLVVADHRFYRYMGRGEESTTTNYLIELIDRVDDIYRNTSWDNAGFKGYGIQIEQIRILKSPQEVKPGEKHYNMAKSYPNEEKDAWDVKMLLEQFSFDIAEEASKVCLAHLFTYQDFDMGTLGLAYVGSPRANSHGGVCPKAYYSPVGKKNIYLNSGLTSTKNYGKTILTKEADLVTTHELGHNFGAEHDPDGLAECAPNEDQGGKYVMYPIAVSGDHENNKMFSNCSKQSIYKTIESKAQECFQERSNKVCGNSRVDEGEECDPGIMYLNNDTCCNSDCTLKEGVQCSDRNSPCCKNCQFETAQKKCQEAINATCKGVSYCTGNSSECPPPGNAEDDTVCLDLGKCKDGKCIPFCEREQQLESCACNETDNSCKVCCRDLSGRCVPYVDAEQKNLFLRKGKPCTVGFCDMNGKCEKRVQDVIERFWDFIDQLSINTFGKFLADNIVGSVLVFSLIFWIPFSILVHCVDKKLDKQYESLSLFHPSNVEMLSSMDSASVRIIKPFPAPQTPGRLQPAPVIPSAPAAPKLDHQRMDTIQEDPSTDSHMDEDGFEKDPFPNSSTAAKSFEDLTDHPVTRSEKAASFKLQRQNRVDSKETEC

[21] = ADAM10 inhibitors, peptide cleavage, dose response, biochemical, QFRET (AID 743254);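 further: ADAM10 enzyme with the DM2 quenched FRET peptide as substrate; EDANS fluorescence gain as the protease cuts the substrate; inhibitor potency against ADAM10 proteolytic activity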
[22] = biological target: NAD-dependent protein deacylase sirtuin-5, mitochondrial (Homo sapiens, UniProt Q9NXA8); assay: SIRT5 deacylase inhibitors, dose response, biochemical, fluorescence imaging, cherry-pick, set 6 (AID 720597)
Sequence of NAD-dependent protein deacylase sirtuin-5, mitochondrial (Q9NXA8 whole entry): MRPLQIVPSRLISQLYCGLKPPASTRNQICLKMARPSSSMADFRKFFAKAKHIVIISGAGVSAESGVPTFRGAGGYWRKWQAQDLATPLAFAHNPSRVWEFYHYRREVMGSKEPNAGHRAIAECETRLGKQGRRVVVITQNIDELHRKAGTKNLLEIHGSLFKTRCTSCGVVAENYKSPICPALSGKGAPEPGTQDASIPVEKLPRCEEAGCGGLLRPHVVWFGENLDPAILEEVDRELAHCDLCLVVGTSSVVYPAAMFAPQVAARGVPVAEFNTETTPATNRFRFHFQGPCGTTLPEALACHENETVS

[23] = HepG2 cell cytotoxicity, dose response, cytotoxicity control, cherry-picks, set 5 (AID 1053118); type: functional, cell-based
[24] = HEK293T cytotoxicity, dose response, cytotoxicity control for miR-122 modulator project, cell-based, activator set, cherry-pick (AID 720690); type: functional;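 further: HEK293T human cells scored for general mammalian cytotoxicity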
[25] = miR-122 activators in hepatoma reporter cells, dose response, cell-based, Huh7 psiCHECK-miR122, Renilla luciferase, cherry-picked (AID 651956); type: functional;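 further: huh7 hepatoma cells stably carrying a psiCHECK-2 miR-122 sensor plasmid; renilla luciferase signal reporting endogenous miR-122 activity after 48 h compound exposure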
[26] = HEK293 cell cytotoxicity, dose response, cytotoxicity control, cherry-picks, set 5 (AID 1053117); type: functional, cell-based
[27] = biological target: T2, Disintegrin and metalloproteinase domain-containing protein 17; assay: exosite inhibitors of ADAM17, dose response, biochemical (AID 743260)
[28] = ADAM10 protease inhibitors, dose response, selectivity assay for ADAM17 exosite inhibitor project, biochemical, FRET peptide substrate, recombinant human ADAM10 (AID 743259);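 further: ADAM10 enzyme cleaving a FRET peptide substrate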
[29] = CTGF mRNA reduction under YAP1 overexpression, dose response, mechanism study for YAP1 pathway inhibitor project, DLD1 cells, RT-qPCR, cherry-pick (AID 1053127); type: functional, cell-based; details: DLD-1
[30] = Late-stage results from the probe development effort to identify antagonists of arginine vasopressin receptor 1a (AVPR1a): fluorescence-based cell-based dose response OXTR inhibition counterscreen assay.; type: functional
Vasopressin V2 receptor = Vasopressin V2 receptor (Homo sapiens, UniProt P30518); assay: Late-stage results from the probe development effort to identify antagonists of arginine vasopressin receptor 1a (AVPR1a): fluorescence-based cell-based dose response AVPR2 inhibition counterscreen assay.; type: functional
Sequence of Vasopressin V2 receptor (P30518 whole entry): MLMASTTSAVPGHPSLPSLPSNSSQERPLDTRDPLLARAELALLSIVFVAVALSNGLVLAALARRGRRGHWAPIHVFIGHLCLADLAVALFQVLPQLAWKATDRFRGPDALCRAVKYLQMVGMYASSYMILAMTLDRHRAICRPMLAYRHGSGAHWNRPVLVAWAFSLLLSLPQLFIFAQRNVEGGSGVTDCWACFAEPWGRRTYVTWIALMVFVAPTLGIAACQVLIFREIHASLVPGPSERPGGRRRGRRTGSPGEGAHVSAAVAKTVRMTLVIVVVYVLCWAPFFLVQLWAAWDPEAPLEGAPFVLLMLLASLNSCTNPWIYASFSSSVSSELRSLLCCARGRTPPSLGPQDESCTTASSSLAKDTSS

[31] = Late-stage results from the probe development effort to identify antagonists of arginine vasopressin receptor 1a (AVPR1a): fluorescence-based cell-based dose response AVPR1a inhibition assay.; type: functional
Vasopressin V1b receptor = Vasopressin V1b receptor (Homo sapiens, UniProt P47901); assay: Late-stage results from the probe development effort to identify antagonists of arginine vasopressin receptor 1a (AVPR1a): fluorescence-based cell-based dose response AVPR1b inhibition counterscreen assay.; type: functional
Sequence of Vasopressin V1b receptor (P47901 whole entry): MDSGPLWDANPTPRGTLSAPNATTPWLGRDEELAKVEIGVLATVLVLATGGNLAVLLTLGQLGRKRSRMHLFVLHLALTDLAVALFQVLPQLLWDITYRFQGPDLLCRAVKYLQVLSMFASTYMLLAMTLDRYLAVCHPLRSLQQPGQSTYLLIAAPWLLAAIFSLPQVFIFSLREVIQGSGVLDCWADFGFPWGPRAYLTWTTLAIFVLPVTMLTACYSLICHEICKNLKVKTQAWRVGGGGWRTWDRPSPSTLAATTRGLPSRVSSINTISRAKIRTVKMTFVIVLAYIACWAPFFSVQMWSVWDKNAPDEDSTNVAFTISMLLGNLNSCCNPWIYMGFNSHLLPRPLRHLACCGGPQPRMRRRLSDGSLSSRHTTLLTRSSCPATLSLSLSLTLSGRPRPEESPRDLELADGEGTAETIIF

fMet-Leu-Phe receptor = fMet-Leu-Phe receptor (Homo sapiens, UniProt P21462); assay: FPR ligands, dose response (AID 519); type: functional
Sequence of fMet-Leu-Phe receptor (P21462 whole entry): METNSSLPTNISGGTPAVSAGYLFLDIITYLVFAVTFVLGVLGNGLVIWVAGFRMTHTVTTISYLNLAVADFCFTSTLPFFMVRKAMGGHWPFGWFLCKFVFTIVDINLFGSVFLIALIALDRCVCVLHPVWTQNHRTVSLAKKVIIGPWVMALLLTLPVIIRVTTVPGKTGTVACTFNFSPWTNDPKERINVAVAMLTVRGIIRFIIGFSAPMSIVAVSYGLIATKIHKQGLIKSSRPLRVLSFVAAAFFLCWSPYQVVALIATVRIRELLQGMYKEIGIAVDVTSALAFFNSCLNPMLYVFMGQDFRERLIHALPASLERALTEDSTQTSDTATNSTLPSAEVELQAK

HEK293 = assay: HEK293T cell cytotoxicity, dose response, cytotoxicity control, ATP luminescence, cherry-pick samples (AID 687005); type: functional, cell-based; details: Homo sapiens;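 further: cells exposed to compound for 48 hours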
[32] = HEK293 Cytotoxicity Assay Measured in Cell-Based System Using Plate Reader - 7071-01_Inhibitor_Dose_CherryPick_Activity_Set2.; type: functional

With `CCOc1ccc(NC(=O)c2cccc(NC(=O)C3CCCC3)c2)cc1` as the compound, how does the IC50 [1] read?
The IC50 was 0.07 µM (active).

Which AC50 [2] does the source give for `O=C(NCc1ccccc1)c1ccc(-c2cn[nH]c2)c2ccoc12` here?
The AC50 was 0.142 µM (active).

What about the AC50 [3] of the same compound?
Its AC50 is > 52 µM (inactive).

Which EC50 [4] does the source give for `COc1ccc(N2CCN(C(=O)c3cc4c(s3)-c3ccccc3S(=O)(=O)C4)CC2)cc1` here?
Its EC50 is > 50 µM (active).

What about the IC50 [5] of the same compound?
The IC50 was > 10 µM (inactive).

For `CC(=O)Nc1ccc(NC(=O)CN(c2ccc(C34CC5CC(CC(C5)C3)C4)cc2)S(C)(=O)=O)cc1`, which AC50 [6] is on record?
The AC50 was > 70 µM (inactive).

What about the AC50 [7] of the same compound?
The AC50 was 57.7 µM (active).

What about the AC50 [8] of the same compound?
Its AC50 is 2.87 µM (active).

And the AC50 [9]?
The AC50 was 50.4 µM (active).

What about the AC50 [10] of the same compound?
Its AC50 is 7.68 µM (active) and 9 µM (active).

And the AC50 [11]?
The AC50 was 5.78 µM (active).

With `Cn1c(O)c(N=NC(=O)c2ccco2)c2ccccc21` as the compound, how does the EC50 [12] read?
The EC50 was > 67.5 µM (inactive).

For `COc1cccc(C(=O)Nc2ccc(-n3nncc3C(C)(C)C)cc2)c1`, which IC50 [13] is on record?
The IC50 was > 122 µM (inactive).

And the IC50 [14]?
Its IC50 is > 122 µM (inactive).

With `CNc1ccccc1C(C)(C)c1cc(-c2cccc(OC)c2)no1` as the compound, how does the IC50 [15] read?
Its IC50 is > 80 µM (inactive).

What about the AC50 [16] of the same compound?
The AC50 was 1.92 µM (active).

What about the AC50 [17] of the same compound?
Its AC50 is 9.49 µM (active).

And the AC50 [18]?
The AC50 was 56.8 µM (active).

And the AC50 [19]?
Its AC50 is 1.82 µM (active).

With `Fc1ccc(-c2nc3ccccn3c2NCc2ccc3c(c2)OCO3)cc1` as the compound, how does the AC50 (cells) read?
Its AC50 is > 52 µM (inactive).

Which results are given for `COc1ccc(-c2[nH]nc(C)c2-c2cnn(-c3ccccc3)c2)c(O)c1C`?
IC50 [20]: > 69.5 µM (inactive); IC50 [21]: > 7.72 µM (active)

For `Cc1ccc(S(=O)(=O)N(C)C[C@H]2OCCCC[C@H](C)Oc3ccc(NS(=O)(=O)c4ccc(F)cc4)cc3C(=O)N([C@@H](C)CO)C[C@H]2C)cc1`, which AC50 [22] is on record?
Its AC50 is > 30 µM (inactive).

For `CO[C@@H]1CN(C)C(=O)c2cc(NC(=O)Nc3cc(Cl)cc(Cl)c3)ccc2OC[C@H](C)NC[C@H]1C`, which AC50 [23] is on record?
The AC50 was 10.9 µM (active).

What about the AC50 [24] of the same compound?
Its AC50 is 17.6 µM (active).

And the AC50 [2]?
Its AC50 is 29 µM (active).

What about the AC50 [25] of the same compound?
Its AC50 is 10.1 µM (active).

And the AC50 [26]?
Its AC50 is 12.8 µM (active).

For `CCOc1ccc(CNC(=S)N/N=C/c2ccc(OC)c(OC)c2)cc1`, which IC50 [27] is on record?
Its IC50 is > 69.5 µM (inactive).

And the IC50 [28]?
Its IC50 is > 69.5 µM (inactive).

For `CS(=O)(=O)N1CC(=O)N2[C@H](C1)[C@@H](c1ccc(C#Cc3ccc(F)cc3)cc1)[C@@H]2CO`, which AC50 [29] is on record?
The AC50 was > 26 µM (inactive).

With `COc1ccc(N(CC2CC2)C(=O)N2CCN(c3ccccc3C(F)(F)F)CC2)cc1` as the compound, how does the IC50 [30] read?
Its IC50 is 0.12 µM (active).

And the IC50 (Vasopressin V2 receptor)?
The IC50 was 8.41 µM (active).

What about the IC50 [31] of the same compound?
The IC50 was 0.0588 µM (active).

What about the IC50 (Vasopressin V1b receptor) of the same compound?
Its IC50 is 17.9 µM (inactive).

With `CCN(CCCc1ccccc1)CCCc1ccccc1` [ALVERINE CITRATE] as the compound, how does the Ki (fMet-Leu-Phe receptor) read?
The Ki was > 66.7 µM (inactive).

Which AC50 (HEK293) does the source give for `C[C@H]1CN([C@@H](C)CO)S(=O)(=O)c2ccc(Br)cc2O[C@@H]1CN(C)S(=O)(=O)c1ccccc1F` here?
Its AC50 is 15.7 µM (active).

And the AC50 [32]?
Its AC50 is 15.7 µM (active).
